Laboratory results from patent US12378224B2 (Dong-A Socio Holdings Co., Ltd., priority 2016, dated 2025).

Assays:
[1] = target: human MER (528-end) (Homo sapiens (Human), UniProt Q12866); assay: HTRF Kinase Activity Biochemical Assay (KinEASE-TK); details: 10 uM ATP
In short: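 Activity read-out is the HTRF ratio (665 nm over 620 nm emission, ×10,000; excitation 340 nm) after 1 h detection with 0.375 nM Eu3+-cryptate anti-TK antibody plus 0.062 uM SA-XL665. Preceding kinase step: human MER (528-end), biotinylated TK substrate, 1 h, room temperature.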

[2] = target: BCR fusion to kinase domain of MerTK (Ba/F3-MerTK) (Homo sapiens, UniProt Q12866); assay: In Cell TAM Kinase Assay Using BaF3 Cellular System; assay type: cell-based, murine; details: Ba/F3 BCR-kinase fusion proliferation, 72 hours, Cell Titer Glo; kinase not given; read-out: IC50
Chain of BCR fusion to kinase domain of MerTK (Ba/F3-MerTK) (Q12866 21-999 limits assumed, change not shown): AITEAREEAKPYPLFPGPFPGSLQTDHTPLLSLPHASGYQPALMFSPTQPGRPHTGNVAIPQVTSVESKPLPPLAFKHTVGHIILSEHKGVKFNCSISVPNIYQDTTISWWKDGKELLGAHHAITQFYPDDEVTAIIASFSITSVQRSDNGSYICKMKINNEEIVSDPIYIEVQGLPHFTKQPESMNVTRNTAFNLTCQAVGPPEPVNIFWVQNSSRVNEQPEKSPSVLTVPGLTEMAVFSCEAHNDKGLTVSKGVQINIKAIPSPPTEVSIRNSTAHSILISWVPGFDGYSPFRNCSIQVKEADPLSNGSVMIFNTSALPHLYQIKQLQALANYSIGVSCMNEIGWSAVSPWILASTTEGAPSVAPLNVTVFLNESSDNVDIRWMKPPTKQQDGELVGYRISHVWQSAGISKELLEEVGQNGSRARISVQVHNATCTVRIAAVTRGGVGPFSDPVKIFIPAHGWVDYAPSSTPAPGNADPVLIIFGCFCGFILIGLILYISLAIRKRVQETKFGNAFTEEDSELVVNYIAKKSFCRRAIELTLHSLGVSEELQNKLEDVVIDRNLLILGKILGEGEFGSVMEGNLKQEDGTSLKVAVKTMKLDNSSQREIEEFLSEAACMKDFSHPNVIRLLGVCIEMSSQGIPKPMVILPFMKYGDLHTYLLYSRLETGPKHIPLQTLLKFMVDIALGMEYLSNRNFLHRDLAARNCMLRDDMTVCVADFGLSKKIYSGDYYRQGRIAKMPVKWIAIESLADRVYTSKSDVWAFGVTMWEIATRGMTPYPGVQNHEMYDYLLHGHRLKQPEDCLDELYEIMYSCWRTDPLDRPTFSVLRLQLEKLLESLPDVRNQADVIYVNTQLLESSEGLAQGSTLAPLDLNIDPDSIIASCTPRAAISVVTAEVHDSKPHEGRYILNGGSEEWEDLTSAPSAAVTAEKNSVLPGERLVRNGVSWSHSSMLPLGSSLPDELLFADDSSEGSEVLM
In short: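 Ba/F3 murine pro-B cells expressing BCR–MerTK kinase-domain fusion (IL-3 independent), seeded at 1,000 cells/well onto compound and grown 72 h. Viability read by CellTiter-Glo 2.0 luminescence after 30 min at room temperature.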

Chain of human MER (528-end) (Q12866 528-999 limits assumed): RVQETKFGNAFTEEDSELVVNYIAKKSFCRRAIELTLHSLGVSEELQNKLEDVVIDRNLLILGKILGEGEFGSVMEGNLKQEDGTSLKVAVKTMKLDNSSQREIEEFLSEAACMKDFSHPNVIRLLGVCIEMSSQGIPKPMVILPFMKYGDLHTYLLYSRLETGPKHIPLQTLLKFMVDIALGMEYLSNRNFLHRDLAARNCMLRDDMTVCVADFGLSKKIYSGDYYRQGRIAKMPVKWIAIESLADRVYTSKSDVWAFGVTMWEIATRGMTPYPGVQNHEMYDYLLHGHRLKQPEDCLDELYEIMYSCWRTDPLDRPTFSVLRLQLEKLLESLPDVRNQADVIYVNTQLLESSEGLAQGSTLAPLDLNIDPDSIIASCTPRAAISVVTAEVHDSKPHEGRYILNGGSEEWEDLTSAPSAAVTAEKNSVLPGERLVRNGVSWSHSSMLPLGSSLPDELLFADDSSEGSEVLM

Row | Compound | IC50 [1] [nM] | IC50 [2] [nM]
1 | CCN(c1ccc2cc(C(=O)N3CC[C@@H](NC(=O)c4cc(-c5cnn(C)c5)cnc4N)C3)ccc2c1)C1CC(C)(C)N(C)C(C)(C)C1 [Example 721, (R)-2-amino-N-(1-(6-(ethyl(1,2,2,6,6-pentamethylpiperidin-4-yl)amino)-2-naphthoyl)pyrrolidin-3-yl)-5-(1-methyl-1H-pyrazol-4-yl)nicotinamide] | 10 to 100 | 100 to 500
2 | CN1C(C)(C)CC(Nc2ccc3cc(C(=O)N4CC[C@@H](NC(=O)c5cc(-c6cnn(C)c6)cnc5N)C4)ccc3c2)CC1(C)C [Example 722, (R)-2-amino-5-(1-methyl-1H-pyrazol-4-yl)-N-(1-(6-((1,2,2,6,6-pentamethylpiperidin-4-yl)amino)-2-naphthoyl)pyrrolidin-3-yl)nicotinamide] | > 1000 | > 1000
3 | Cn1cc(-c2cnc(N)c(C(=O)NC[C@@H]3CCCN3C(=O)c3ccc(-c4ccccc4)cc3)c2)cn1 [Example 734, (S)—N-((1-([1,1′-biphenyl]-4-carbonyl)pyrrolidin-2-yl)methyl)-2-amino-5-(1-methyl-1H-pyrazol-4-yl)nicotinamide] | > 1000 | > 1000
4 | Cn1cc(-c2cnc(N)c(C(=O)NC[C@@H]3CCCN3C(=O)c3cccc(-c4ccccc4)c3)c2)cn1 [Example 735, (S)—N-((1-([1,1′-biphenyl]-3-carbonyl)pyrrolidin-2-yl)methyl)-2-amino-5-(1-methyl-1H-pyrazol-4-yl)nicotinamide] | > 1000 | > 1000
5 | Cn1cc(-c2cnc(N)c(C(=O)NC[C@H]3CCN(C(=O)c4ccc(-c5ccccc5)cc4)C3)c2)cn1 [Example 740, (R)—N-((1-([1,1′-biphenyl]-4-carbonyl)pyrrolidin-3-yl)methyl)-2-amino-5-(1-methyl-1H-pyrazol-4-yl)nicotinamide] | > 1000 | > 1000
6 | Cn1cc(-c2cnc(N)c(C(=O)N[C@@H]3CCN(C(=O)c4ccc(-c5ccc(CO)cc5)cc4)C3)c2)cn1 [Example 747, (R)-2-amino-N-(1-(4′-(hydroxymethyl)-[1,1′-biphenyl]-4-carbonyl)pyrrolidin-3-yl)-5-(1-methyl-1H-pyrazol-4-yl)nicotinamide] | 100 to 1000 | > 1000
7 | Cn1cc(-c2cnc(N)c(C(=O)N[C@@H]3CCN(C(=O)c4ccc(-c5cccc(CO)c5)cc4)C3)c2)cn1 [Example 748, (R)-2-amino-N-(1-(3′-(hydroxymethyl)-[1,1′-biphenyl]-4-carbonyl)pyrrolidin-3-yl)-5-(1-methyl-1H-pyrazol-4-yl)nicotinamide] | 10 to 100 | 100 to 500
8 | Cn1cc(-c2cnc(N)c(C(=O)N[C@@H]3CCN(C(=O)c4ccc(-c5ccc(O)nc5)cc4)C3)c2)cn1 [Example 749, (R)-2-amino-N-(1-(4-(6-hydroxypyridin-3-yl)benzoyl)pyrrolidin-3-yl)-5-(1-methyl-1H-pyrazol-4-yl)nicotinamide] | > 1000 | > 1000
9 | Cn1cc(-c2cnc(N)c(C(=O)N[C@@H]3CCN(C(=O)c4ccc(-c5ccc6ccccc6c5)cc4)C3)c2)cn1 [Example 750, (R)-2-amino-5-(1-methyl-1H-pyrazol-4-yl)-N-(1-(4-(naphthalen-2-yl)benzoyl)pyrrolidin-3-yl)nicotinamide] | 10 to 100 | > 1000
10 | Cn1cc(-c2cnc(N)c(C(=O)N[C@@H]3CCN(C(=O)c4ccc(C5=CCNCC5)cc4)C3)c2)cn1 [Example 753, (R)-2-amino-5-(1-methyl-1H-pyrazol-4-yl)-N-(1-(4-(1,2,3,6-tetrahydropyridin-4-yl)benzoyl)pyrrolidin-3-yl)nicotinamide] | > 1000 | > 1000
11 | Cn1cc(-c2cnc(N)c(C(=O)N[C@@H]3CCN(C(=O)c4ccc(-c5ccc6c(ccn6C)c5)cc4)C3)c2)cn1 [Example 756, (R)-2-amino-N-(1-(4-(1-methyl-1H-indol-5-yl)benzoyl)pyrrolidin-3-yl)-5-(1-methyl-1H-pyrazol-4-yl)nicotinamide] | 100 to 1000 | > 1000
12 | CN(C)CCOc1ccc2cc(C(=O)N3CC[C@@H](NC(=O)c4cc(-c5cnn(C)c5)cnc4N)C3)ccc2c1 [Example 762] | 100 to 1000 | > 1000
13 | Cn1cc(-c2cnc(N)c(C(=O)N[C@@H]3CCN(C(=O)c4ccc5cc(OCCN6CCCC6)ccc5c4)C3)c2)cn1 [Example 765, (R)-2-amino-5-(1-methyl-1H-pyrazol-4-yl)-N-(1-(6-(2-(pyrrolidin-1-yl)ethoxy)-2-naphthoyl)pyrrolidin-3-yl)nicotinamide] | 100 to 1000 | > 1000
14 | CN(C)CCCOc1ccc2cc(C(=O)N3CC[C@@H](NC(=O)c4cc(-c5cnn(C)c5)cnc4N)C3)ccc2c1 [Example 766, (R)-2-amino-N-(1-(6-(3-(dimethylamino)propoxy)-2-naphthoyl)pyrrolidin-3-yl)-5-(1-methyl-1H-pyrazol-4-yl)nicotinamide] | 100 to 1000 | > 1000
15 | CN1CCC(COc2ccc3cc(C(=O)N4CC[C@@H](NC(=O)c5cc(-c6cnn(C)c6)cnc5N)C4)ccc3c2)CC1 [Example 767, (R)-2-amino-5-(1-methyl-1H-pyrazol-4-yl)-N-(1-(6-((1-methylpiperidin-4-yl)methoxy)-2-naphthoyl)pyrrolidin-3-yl)nicotinamide] | 100 to 1000 | > 1000
16 | Cn1cc(-c2cnc(N)c(C(=O)N[C@@H]3CCN(C(=O)c4ccc(OCc5ccc([N+](=O)[O-])cc5)cc4)C3)c2)cn1 [Example 769, (R)-2-amino-5-(1-methyl-1H-pyrazol-4-yl)-N-(1-(4-((4-nitrobenzyl)oxy)benzoyl)pyrrolidin-3-yl)nicotinamide] | 100 to 1000 | > 1000
17 | Nc1ncc(-c2ccc(F)nc2)cc1C(=O)N[C@@H]1CCN(C(=O)c2ccc(-c3ccc(F)cc3Cl)cc2)C1 [Example 774, (R)-6-amino-N-(1-(2′-chloro-4′-fluoro-[1,1′-biphenyl]-4-carbonyl)pyrrolidin-3-yl)-6^1-fluoro-[3,3′-bipyridine]-5-carboxamide] | 10 to 100 | 100 to 500

Second part, the molecule after the results:

Row | IC50 [1] [nM] | IC50 [2] [nM] | Compound
18 | 10 to 100 | > 1000 | Cc1nc(-c2cccc(-c3ccc(C(=O)N4CC[C@@H](NC(=O)c5cc(-c6cnn(C)c6)cnc5N)C4)cc3)c2)no1 [Example 714, (R)-2-amino-N-(1-(3′-(5-methyl-1,2,4-oxadiazol-3-yl)-[1,1′-biphenyl]-4-carbonyl)pyrrolidin-3-yl)-5-(1-methyl-1H-pyrazol-4-yl)nicotinamide]
19 | 10 to 100 | 500 to 1000 | Cn1cc(-c2cnc(N)c(C(=O)N[C@@H]3CCN(C(=O)c4ccc(Oc5ccccc5Cl)cc4)C3)c2)cn1 [Example 718, (R)-2-amino-N-(1-(4-(2-chlorophenoxy)benzoyl)pyrrolidin-3-yl)-5-(1-methyl-1H-pyrazol-4-yl)nicotinamide]
20 | 100 to 1000 | > 1000 | CN1CCC(N(Cc2ccccc2)c2ccc3cc(C(=O)N4CC[C@@H](NC(=O)c5cc(-c6cnn(C)c6)cnc5N)C4)ccc3c2)CC1 [Example 720, (R)-2-amino-N-(1-(6-(benzyl(1-methylpiperidin-4-yl)amino)-2-naphthoyl)pyrrolidin-3-yl)-5-(1-methyl-1H-pyrazol-4-yl)nicotinamide]
21 | > 1000 | > 1000 | Cn1cc(-c2cnc(N)c(C(=O)NC[C@H]3CCCN3C(=O)c3cccc(-c4ccccc4)c3)c2)cn1 [Example 737, (R)—N-((1-([1,1′-biphenyl]-3-carbonyl)pyrrolidin-2-yl)methyl)-2-amino-5-(1-methyl-1H-pyrazol-4-yl)nicotinamide]
22 | > 1000 | > 1000 | Cn1cc(-c2cnc(N)c(C(=O)NC[C@H]3CCN(C(=O)c4cccc(-c5ccccc5)c4)C3)c2)cn1 [Example 741, (R)—N-((1-([1,1′-biphenyl]-3-carbonyl)pyrrolidin-3-yl)methyl)-2-amino-5-(1-methyl-1H-pyrazol-4-yl)nicotinamide]
23 | > 1000 | > 1000 | CN1CC=C(c2ccc(C(=O)N3CC[C@@H](NC(=O)c4cc(-c5cnn(C)c5)cnc4N)C3)cc2)CC1 [Example 754, (R)-2-amino-N-(1-(4-(1-methyl-1,2,3,6-tetrahydropyridin-4-yl)benzoyl)pyrrolidin-3-yl)-5-(1-methyl-1H-pyrazol-4-yl)nicotinamide]
24 | > 1000 | > 1000 | Cn1cc(-c2cnc(N)c(C(=O)N[C@@H]3CCN(C(=O)c4ccc(-c5ccc(C6=CCNCC6)cc5)cc4)C3)c2)cn1 [Example 755, (R)-2-amino-5-(1-methyl-1H-pyrazol-4-yl)-N-(1-(4′-(1,2,3,6-tetrahydropyridin-4-yl)-[1,1′-biphenyl]-4-carbonyl)pyrrolidin-3-yl)nicotinamide]
25 | 100 to 1000 | > 1000 | Cn1cc(-c2cnc(N)c(C(=O)N[C@@H]3CCN(C(=O)c4ccc(-c5ccc6c(cnn6C)c5)cc4)C3)c2)cn1 [Example 757, (R)-2-amino-N-(1-(4-(1-methyl-1H-indazol-5-yl)benzoyl)pyrrolidin-3-yl)-5-(1-methyl-1H-pyrazol-4-yl)nicotinamide]
26 | 100 to 1000 | > 1000 | CN1CCCC1CCOc1ccc2cc(C(=O)N3CC[C@@H](NC(=O)c4cc(-c5cnn(C)c5)cnc4N)C3)ccc2c1 (stereo partly drawn) [Example 764]
27 | 100 to 1000 | > 1000 | Cn1cc(-c2cnc(N)c(C(=O)N[C@@H]3CCN(C(=O)c4ccc(OCc5cccc([N+](=O)[O-])c5)cc4)C3)c2)cn1 [Example 770, (R)-2-amino-5-(1-methyl-1H-pyrazol-4-yl)-N-(1-(4-((3-nitrobenzyl)oxy)benzoyl)pyrrolidin-3-yl)nicotinamide]
